According to patent US9585957B2, “Adenosine receptor agonists and antagonists to modulate T cell responses” (THE JOHNS HOPKINS UNIVERSITY, priority 2007, dated 2017):

Experiments:
B16 melanoma cells = test: B16 melanoma lung metastases in mice treated with TA99 antibody, with or without ZM; assay type: in vivo; settings: Wt mice, 200 ug TA99 on day +1 plus ZM 10 mg/kg IP twice a day from Day 0; Day +15 (FIG. 17)
Experimental: Wt and A2a receptor null mice received 1 million B16 melanoma cells IV on day 0. Control mice received not treatment. Treated mice received 200 ug IP of TA99 antibody on days 0, 2, 5. The mice were sacrificed on Day 15 and lung mets were counted.
Wt mice received 1 million B16 melanoma cells on Day 0. On day +1 they received either no treatment or 200 ug of TA99 antibody. Zm treated mice received 10 mg/kg IP of ZM twice a day beginning on Day 0 and continuing for the remainder of the experiment. The mice were evaluated on Day +15.
Wt and A2a receptor null mice received 1 million B16 melanoma cells IV on day 0. Control mice received not treatment. Treated mice received 200 ug IP of TA99 antibody on days 0, 2, 5. The mice were sacrificed on Day 15 and lung metastases were counted. […] Eliminating A2a receptor activity in the mice reduced melanoma metastases by approximately 50% and treatment with the antibody reduced metastases by approximately 60%. However, when knock out mice are treated with the antibody, the level of tumor metastases dropped by approximately 80% when compared to untreated wild type, and by 50% or more when compared to either the knock out or antibody treated wild type mice.

LAG-3 = LAG-3 upregulation in A.E7 T cells (ionomycin or PMA stimulation; CsA); assay type: cell-based; settings: ionomycin alone (FIG. 3c)
Source text: FIGS. 3(a)-(f) are graphs showing that A2a receptor signaling promotes the upregulation of LAG-3^+ in vitro. […] Data are representative of 3 independent experiments. 3(c) is a graph of LAG3 upregulation in A.E7 T cells following stimulation with ionomycin or PMA. 3(d) is an image of representative Western blots for phosphor-ERK and total ERK (top and bottom respectively). […] Data are representative of 3 independent experiments. 3(e) is an image of representative Western blots for junB, and actin (top and bottom, respectively). […] Data are representative of 3 independent experiments. 3(f) is an image of representative EMSA for AP-1. […] Data are representative of 3 independent experiments.

With `Nc1nc(NCCc2ccc(O)cc2)nc2nc(-c3ccco3)nn12` [ZM, 4-(2-[7-amino-2-(2-furyl)[1,2,4]triazolo[2,3-a][1,3,5]triazin-5-ylamino]ethyl)phenol] the “reduction of average lung metastases, antibody in combination with ZM” value (B16 melanoma cells) was “approximately 80%”.

For `C[C@H](CCC(=O)O)C[C@H](C)C[C@H](C)C(=O)/C=C(\O)[C@H](C)C[C@H](C)C/C=C/[C@@H](C)[C@@H](O)[C@@H](C)[C@@H](O)C[C@@H]1CC[C@@](C)([C@H]2CC[C@@](C)([C@@H](C)O)O2)O1` [ionomycin], the LAG-3 upregulation (LAG-3) was “markedly upregulated”.
